# Assay results as given in PubChem BioAssay (NCI).
#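 Cultured in 96-well plates, cells were exposed to test compound for 48 hours across five concentrations. At the TGI there is no net growth.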
# Assays:
# Experiment in all cases: NCI tumour cell line growth inhibition, 48 h
# 786-0 renal = test system: 786-0 renal
# A498 renal = test system: A498 renal
# A549 NSCLC = test system: A549 NSCLC
# ACHN renal = test system: ACHN renal
# CAKI-1 renal = test system: CAKI-1 renal
# CCRF-CEM leukemia = test system: CCRF-CEM leukemia
# COLO 205 colon = test system: COLO 205 colon
# DLD-1 colon = test system: DLD-1 colon
# DMS 114 small cell lung = test system: DMS 114 small cell lung
# DMS 273 small cell lung = test system: DMS 273 small cell lung
# EKVX NSCLC = test system: EKVX NSCLC
# HCC-2998 colon = test system: HCC-2998 colon
# HCT-116 colon = test system: HCT-116 colon
# HCT-15 colon = test system: HCT-15 colon
# HL-60(TB) leukemia = test system: HL-60(TB) leukemia
# HOP-18 NSCLC = test system: HOP-18 NSCLC
# HOP-92 NSCLC = test system: HOP-92 NSCLC
# HT29 colon = test system: HT29 colon
# IGROV1 ovarian = test system: IGROV1 ovarian
# K-562 leukemia = test system: K-562 leukemia
# KM12 colon = test system: KM12 colon
# KM20L2 colon = test system: KM20L2 colon
# LXFL 529 NSCLC = test system: LXFL 529 NSCLC
# M14 melanoma = test system: M14 melanoma
# M19-MEL melanoma = test system: M19-MEL melanoma
# MALME-3M melanoma = test system: MALME-3M melanoma
# MOLT-4 leukemia = test system: MOLT-4 leukemia
# NCI-H226 lung = test system: NCI-H226 lung
# NCI-H23 lung = test system: NCI-H23 lung
# NCI-H460 lung = test system: NCI-H460 lung
# NCI-H522 lung = test system: NCI-H522 lung
# OVCAR-3 ovarian = test system: OVCAR-3 ovarian
# OVCAR-4 ovarian = test system: OVCAR-4 ovarian
# OVCAR-8 ovarian = test system: OVCAR-8 ovarian
# RPMI-8226 leukemia = test system: RPMI-8226 leukemia
# RXF 393 renal = test system: RXF 393 renal
# SF-268 CNS = test system: SF-268 CNS
# SF-295 CNS = test system: SF-295 CNS
# SF-539 CNS = test system: SF-539 CNS
# SK-MEL-2 melanoma = test system: SK-MEL-2 melanoma
# SK-MEL-28 melanoma = test system: SK-MEL-28 melanoma
# SK-MEL-5 melanoma = test system: SK-MEL-5 melanoma
# SK-OV-3 ovarian = test system: SK-OV-3 ovarian
# SN12C renal = test system: SN12C renal
# SNB-19 CNS = test system: SNB-19 CNS
# SNB-75 CNS = test system: SNB-75 CNS
# SR leukemia = test system: SR leukemia
# SW-620 colon = test system: SW-620 colon
# TK-10 renal = test system: TK-10 renal
# U251 CNS = test system: U251 CNS
# UO-31 renal = test system: UO-31 renal
# XF 498 CNS = test system: XF 498 CNS
# BT-549 breast = test system: BT-549 breast
# DU-145 prostate = test system: DU-145 prostate
# HOP-62 NSCLC = test system: HOP-62 NSCLC
# HS 578T breast = test system: HS 578T breast
# LOX IMVI melanoma = test system: LOX IMVI melanoma
# MCF7 breast = test system: MCF7 breast
# MDA-MB-231 breast = test system: MDA-MB-231 breast
# MDA-MB-435 = test system: MDA-MB-435
# MDA-N = test system: MDA-N
# NCI/ADR-RES ovarian = test system: NCI/ADR-RES ovarian
# OVCAR-5 ovarian = test system: OVCAR-5 ovarian
# PC-3 prostate = test system: PC-3 prostate
# T-47D breast = test system: T-47D breast
# UACC-257 melanoma = test system: UACC-257 melanoma
# UACC-62 melanoma = test system: UACC-62 melanoma
smiles,measurement,setting,value
C/C(=C\CC/C=C(\C)CC/C=C(\C)CCC1SC1(C)C)CC/C=C(\C)CCC1OC1(C)C (stereo not given),TGI,786-0 renal,> 100 µM
same,TGI,A498 renal,> 100 µM
same,TGI,A549 NSCLC,> 100 µM
same,TGI,ACHN renal,> 100 µM
same,TGI,CAKI-1 renal,> 100 µM
same,TGI,CCRF-CEM leukemia,> 100 µM
same,TGI,COLO 205 colon,> 100 µM
same,TGI,DLD-1 colon,> 100 µM
same,TGI,DMS 114 small cell lung,> 100 µM
same,TGI,DMS 273 small cell lung,> 100 µM
same,TGI,EKVX NSCLC,> 100 µM
same,TGI,HCC-2998 colon,> 100 µM
same,TGI,HCT-116 colon,> 100 µM
same,TGI,HCT-15 colon,> 100 µM
same,TGI,HL-60(TB) leukemia,> 100 µM
same,TGI,HOP-18 NSCLC,> 100 µM
same,TGI,HOP-92 NSCLC,> 100 µM
same,TGI,HT29 colon,> 100 µM
same,TGI,IGROV1 ovarian,> 100 µM
same,TGI,K-562 leukemia,> 100 µM
same,TGI,KM12 colon,> 100 µM
same,TGI,KM20L2 colon,> 100 µM
same,TGI,LXFL 529 NSCLC,> 100 µM
same,TGI,M14 melanoma,> 100 µM
same,TGI,M19-MEL melanoma,> 100 µM
same,TGI,MALME-3M melanoma,> 100 µM
same,TGI,MOLT-4 leukemia,> 100 µM
same,TGI,NCI-H226 lung,> 100 µM
same,TGI,NCI-H23 lung,> 100 µM
same,TGI,NCI-H460 lung,> 100 µM
same,TGI,NCI-H522 lung,> 100 µM
same,TGI,OVCAR-3 ovarian,> 100 µM
same,TGI,OVCAR-4 ovarian,> 100 µM
same,TGI,OVCAR-8 ovarian,> 100 µM
same,TGI,RPMI-8226 leukemia,> 100 µM
same,TGI,RXF 393 renal,> 100 µM
same,TGI,SF-268 CNS,> 100 µM
same,TGI,SF-295 CNS,> 100 µM
same,TGI,SF-539 CNS,> 100 µM
same,TGI,SK-MEL-2 melanoma,> 100 µM
same,TGI,SK-MEL-28 melanoma,> 100 µM
same,TGI,SK-MEL-5 melanoma,> 100 µM
same,TGI,SK-OV-3 ovarian,> 100 µM
same,TGI,SN12C renal,> 100 µM
same,TGI,SNB-19 CNS,> 100 µM
same,TGI,SNB-75 CNS,> 100 µM
same,TGI,SR leukemia,> 100 µM
same,TGI,SW-620 colon,> 100 µM
same,TGI,TK-10 renal,> 100 µM
same,TGI,U251 CNS,> 100 µM
same,TGI,UO-31 renal,> 100 µM
same,TGI,XF 498 CNS,> 100 µM
CCOC(=O)C1=NNC(C(=O)c2ccccc2)C1c1ccccc1 (stereo not given),TGI,786-0 renal,6.3 µM
same,TGI,A498 renal,> 100 µM
same,TGI,A549 NSCLC,41.2 µM
same,TGI,ACHN renal,3.71 µM
same,TGI,BT-549 breast,4.37 µM
same,TGI,CAKI-1 renal,3.25 µM
same,TGI,CCRF-CEM leukemia,> 100 µM
same,TGI,COLO 205 colon,3.69 µM
same,TGI,DU-145 prostate,25.9 µM
same,TGI,EKVX NSCLC,36.6 µM
same,TGI,HCC-2998 colon,3.92 µM
same,TGI,HCT-116 colon,7 µM
same,TGI,HCT-15 colon,5.94 µM
same,TGI,HL-60(TB) leukemia,2.86 µM
same,TGI,HOP-62 NSCLC,26 µM
same,TGI,HOP-92 NSCLC,4.46 µM
same,TGI,HS 578T breast,20.5 µM
same,TGI,HT29 colon,5.3 µM
same,TGI,IGROV1 ovarian,> 34 µM
same,TGI,K-562 leukemia,> 100 µM
same,TGI,KM12 colon,19.8 µM
same,TGI,LOX IMVI melanoma,10.6 µM
same,TGI,M14 melanoma,3.75 µM
same,TGI,MALME-3M melanoma,4.77 µM
same,TGI,MCF7 breast,5.82 µM
same,TGI,MDA-MB-231 breast,12.2 µM
same,TGI,MDA-MB-435,3.89 µM
same,TGI,MDA-N,3.98 µM
same,TGI,MOLT-4 leukemia,> 34.8 µM
same,TGI,NCI-H226 lung,39.5 µM
same,TGI,NCI-H23 lung,6.17 µM
same,TGI,NCI-H522 lung,2.02 µM
same,TGI,NCI/ADR-RES ovarian,12.3 µM
same,TGI,OVCAR-3 ovarian,11 µM
same,TGI,OVCAR-4 ovarian,> 38.3 µM
same,TGI,OVCAR-5 ovarian,17.4 µM
same,TGI,OVCAR-8 ovarian,22 µM
same,TGI,PC-3 prostate,22.5 µM
same,TGI,RPMI-8226 leukemia,> 47.2 µM
same,TGI,RXF 393 renal,3.78 µM
same,TGI,SF-268 CNS,19.2 µM
same,TGI,SF-295 CNS,31.8 µM
same,TGI,SF-539 CNS,4.76 µM
same,TGI,SK-MEL-2 melanoma,31.2 µM
same,TGI,SK-MEL-28 melanoma,3.67 µM
same,TGI,SK-MEL-5 melanoma,5.78 µM
same,TGI,SK-OV-3 ovarian,33.1 µM
same,TGI,SN12C renal,3.89 µM
same,TGI,SNB-19 CNS,27.8 µM
same,TGI,SNB-75 CNS,16.7 µM
same,TGI,SR leukemia,> 100 µM
same,TGI,SW-620 colon,3.48 µM
same,TGI,T-47D breast,29.3 µM
same,TGI,TK-10 renal,6.42 µM
same,TGI,U251 CNS,8.48 µM
same,TGI,UACC-257 melanoma,6.74 µM
same,TGI,UACC-62 melanoma,8.63 µM
same,TGI,UO-31 renal,3.71 µM
